The values that follow are results of earlier work, collected in patent US10772837B2, “Modified release multi-layer tablet cannabinoid formulations” (CannTab Therapeutics, Limited, priority 2017, dated 2020).

Each structure is given as a SMILES string. Like-named read-outs stand apart in the source and are kept apart here.

For data set [1] the following is noted: pure CBD, twice-daily dosages, paediatric patients; ranging from total seizure freedom to these reductions.
For data set [2] the following is noted: for solubility: in water.

For the compound `C=C(C)[C@@H]1CCC(C)=C[C@H]1c1c(O)cc(CCCCC)cc1O` [CBD, cannabidiol], the seizure reduction in data set [1] is recorded as 25-80%.

As for `CCCCCc1cc(O)c2c(c1)OC(C)(C)[C@@H]1CCC(C)=C[C@@H]21` [Dronabinol, (−)-trans-Δ9-tetrahydrocannabinol], the BCS class result in data set [2] (NICHD/FDA Oral Formulations Platform Report 1) is listed as “class 2 or class 4”. The solubility entry in data set [2] is listed as “insoluble in water”; in data set [2] (listed as dronabinol), “low”.
